In brackets after ≈: the same amount, converted by molar mass. Read-outs that look alike come from different tables or passages of the source.
What was measured:
[1] = test system: xenograft ovarian OVCAR-3; conditions: treated mice, xenograft ovarian OVCAR-3 model; cited from earlier work
[2] = test system: human epidermoid carcinoma of the nasopharynx (KB); assay: Cytotoxicity, SRB assay, KB cells; format: cell-based; conditions: for ED50 KB: SRB assay, 50% reduction in adsorbance at 562 nm relative to untreated cells; for number in parentheses after the ED50 bound, KB: not defined in the patent, stands after the highest concentration (>20 or >10 μg/mL)
Method: (§1) Compounds 2-4 and 9-12 were evaluated in a tubulin polymerization assay and for cytotoxicity. Tubulin polymerization assays were performed as described in Y. Xia et al., J. Med. Chem. 1998, 41, 1155. Cytotoxic assays were performed as described in L. Rubinstein et al., J. Natl. Cancer Inst. 1990, 82, 1113-8.

bone carcinoma (HOS) = assay: Cytotoxicity, SRB assay, HOS cells; format: cell-based, human; conditions: 50% reduction in adsorbance at 562 nm relative to untreated cells
Method: as §1

[3] = test system: human ovarian cancer (1A9); assay: Cytotoxicity, SRB assay, 1A9 cells; format: cell-based; conditions: 50% reduction in adsorbance at 562 nm relative to untreated cells
Method: (§2) Cytotoxic assays were performed as described in L. Rubinstein et al., J. Natl. Cancer Inst.

[4] = test system: glioblastoma carcinoma (U-87-MG); assay: Cytotoxicity, SRB assay, U-87-MG cells; format: cell-based, human; conditions: 50% reduction in adsorbance at 562 nm relative to untreated cells
Method: as §1

[5] = test system: human melanoma cancer (SKMEL-2); assay: Cytotoxicity, SRB assay, SKMEL-2 cells; format: cell-based; conditions: 50% reduction in adsorbance at 562 nm relative to untreated cells
Method: as §1

human lung cancer (A549) = assay: Cytotoxicity, SRB assay, A549 cells; format: cell-based; conditions: 50% reduction in adsorbance at 562 nm relative to untreated cells
Method: as §1

[6] = test system: human breast cancer (MCF-7); assay: Cytotoxicity, SRB assay, MCF-7 cells; format: cell-based; conditions: 50% reduction in adsorbance at 562 nm relative to untreated cells
Method: as §1

tubulin polymerization = assay: Tubulin polymerization assay (ITP); format: biochemical; conditions: for IC50: concentration that inhibits the extent of assembly by 50% after 20 min at 30° C.
Method: as §1

[7] = test system: seven human tumor cell lines; assay: Cytotoxicity against seven human tumor cell lines (panel); format: cell-based; conditions: seven human tumor cell lines: epidermoid, bone, ovarian, glioblastoma, melanoma, lung, breast
Method: as §2

Molecule	increase in life span [1] [%]	ED50 KB [2] [mg/L]	ED50 HOS (bone carcinoma (HOS)) [mg/L]	ED50 1A9 [3] [mg/L]	ED50 U87-MG [4] [mg/L]	ED50 SKMEL-2 [5] [mg/L]	ED50 A549 (human lung cancer (A549)) [mg/L]	ED50 MCF-7 [6] [mg/L]	activity in the tubulin polymerization assay (in words) (tubulin polymerization)	IC50 (tubulin polymerization) [µM]	activity in the tubulin polymerization assay (in words) (tubulin polymerization; listed as 2-Phenyl-4-quinolone-8-acetic acid)	cytotoxicity in vitro (in words) [7]	number in parentheses after the ED50 bound, KB [2]	fold more active in the tubulin polymerization assay (tubulin polymerization; compound 10 relative to the inactive 9 and 12 (IC50>40 μM))	melting point [°C]
O=c1cc(-c2ccccc2F)[nH]c2cc3c(cc12)OCO3 [Compound 1]	130	–	–	–	–	–	–	–	–	–	–	–	–	–	–
O=C(O)Cc1cccc2c1N=C(c1ccccc1)CC2=O [Compound 11, 2-Phenyl-4-quinolone-8-acetic acid]	–	0.04 (≈ 0.143 µM)	0.07 (≈ 0.251 µM)	0.04 (≈ 0.143 µM)	0.12 (≈ 0.43 µM)	0.06 (≈ 0.215 µM)	0.11 (≈ 0.394 µM)	0.44 (≈ 1.58 µM)	totally inactive	> 40	not inhibitors of tubulin polymerization	extremely potent	–	–	–
2-Phenyl-4-quinolone-6-acetic acid [Compound 3]	–	> 20	> 20	> 20	> 20	> 20	> 20	> 20	–	10 to 20	–	–	36	–	–
COC(=O)Cc1cccc2c(O)cc(-c3ccccc3F)nc12 [Compound 10]	–	> 10	> 10	7.50 (≈ 24.1 µM)	–	> 10	> 10	> 10	–	~10	–	selective activity against ovarian cancers	29	about 4 fold	–
COC(=O)Cc1cccc2c(=O)cc(-c3ccccc3)[nH]c12 [Compound 9, 2-Phenyl-4-quinolone-8-methyl acetate]	–	> 20	> 20	> 20	–	> 20	–	> 20	–	> 40	–	–	8	–	76 to 78
O=C(O)Cc1ccc2c(=O)cc(-c3ccccc3F)[nH]c2c1 [Compound 4]	–	> 20	–	> 20	–	> 20	> 20	> 20	totally inactive	20 to 40	–	–	8	–	–
O=C(O)Cc1cccc2[nH]c(-c3ccccc3F)cc(=O)c12 [Compound 2]	–	–	–	–	–	> 20	> 20	> 20	totally inactive	> 40	–	–	–	–	–
O=C(O)Cc1cccc2c1N=C(c1ccccc1F)CC2=O [Compound 12, 2-(2′-Fluorophenyl)-4-quinolone-8-acetic acid]	–	0.03 (≈ 0.101 µM)	0.04 (≈ 0.135 µM)	0.02 (≈ 0.0673 µM)	0.07 (≈ 0.235 µM)	0.05 (≈ 0.168 µM)	0.06 (≈ 0.202 µM)	0.12 (≈ 0.404 µM)	not inhibitors of tubulin polymerization	> 40	–	extremely potent	–	–	243 to 245

Source: US6916831B2, “Flavone acetic acid analogs and methods of use thereof” (The University of North Carolina at Chapel Hill, priority 2003, dated 2005)
